Experimental data published in US6737383B1, “Herbicidal oxadiazolidines” (priority 1999, dated 2004).

Experiments:
bamyardgrass = assay: Test B flood test barnyardgrass; type: in vivo, Echinochloa crus-galli
Summary of the method: (§1)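 Flood test on plants grown to the 2-leaf stage; treated plants kept in greenhouse twelve to sixteen days, then visually rated against controls on a 0 (no effect) to 10 (complete control) scale.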

blackgrass = assay: Test B pre/postemergence blackgrass; type: in vivo, Alopecurus myosuroides
Summary of the method: (§2)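 Herbicidal effect was estimated by eye on a ten-point control scale after plants spent twelve to sixteen days in a greenhouse following soil or foliar treatment. Foliar sprays targeted plants at one to four leaves; all doses were formulated in a non-phytotoxic solvent with surfactant.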

wild oat = assay: Test B pre/postemergence wild oat; type: in vivo, Avena fatua
Summary of the method: as §2

rape = assay: Test B pre/postemergence rape; type: in vivo, Brassica napus
Summary of the method: as §2

smallflower flatsedge = assay: Test B flood test smallflower flatsedge; type: in vivo, Cyperus difformis
Summary of the method: as §1

purple nutsedge = assay: Test B pre/postemergence purple nutsedge; type: in vivo, Cyperus rotundus
Summary of the method: as §2

giant foxtail = assay: Test B pre/postemergence giant foxtail; type: in vivo, Setaria faberii
Summary of the method: as §2

soybean = assay: Test B pre/postemergence soybean; type: in vivo, Glycine max
Summary of the method: as §2

bedstraw = assay: Test B pre/postemergence bedstraw; type: in vivo, Galium aparine; conditions: Postemergence
Summary of the method: as §2

velvetleaf = assay: Test B pre/postemergence velvetleaf; type: in vivo, Abutilon theophrasti
Summary of the method: as §2

duck salad = assay: Test B flood test duck salad; type: in vivo, Heteranthera limosa
Summary of the method: as §1

wheat = assay: Test B pre/postemergence wheat; type: in vivo, Triticum aestivum
Summary of the method: as §2

surinam grass = assay: Test B pre/postemergence surinam grass; type: in vivo, Brachiaria decumbens
Summary of the method: as §2

pigweed = assay: Test B pre/postemergence pigweed; type: in vivo, Amaranthus retroflexus
Summary of the method: as §2

morningglory = assay: Test B pre/postemergence morningglory; type: in vivo, Ipomoea hederacea
Summary of the method: as §2

cocklebur = assay: Test B pre/postemergence cocklebur; type: in vivo, Xanthium strumarium
Summary of the method: as §2

[1] = Postemergence block (flood test species), Rate 250 g/ha, scale 0 to 10
[2] = Postemergence section (flood test species), Rate 500 g/ha, scale of 0 to 10 where 0 is no effect and 10 is complete control
[3] = Rate 62 g/ha, Postemergence (flood test), scale 0 to 10, 0 no effect, 10 complete control
[4] = Rate 125 g/ha, Postemergence section (flood test species), scale 0 to 10, 0 is no effect, 10 is complete control
[5] = Postemergence, Rate 250 g/ha, scale 0 to 10
[6] = Postemergence, Rate 500 g/ha, scale of 0 to 10 where 0 is no effect and 10 is complete control
[7] = Preemergence, Rate 62 g/ha, scale 0 to 10 (0 no effect, 10 complete control)
[8] = Preemergence, Rate 125 g/ha, scale of 0 to 10 where 0 is no effect and 10 is complete control
[9] = Preemergence, Rate 250 g/ha, scale 0 to 10, 0 is no effect, 10 is complete control
[10] = Preemergence, Rate 500 g/ha, scale 0 to 10, 0 is no effect, 10 is complete control
[11] = Rate 62 g/ha, Postemergence, scale 0 to 10, 0 no effect, 10 complete control
[12] = Rate 125 g/ha, Postemergence, scale 0 to 10, 0 is no effect, 10 is complete control

CC(C)N(C(=O)n1oc(=O)n(CCC#N)c1=O)c1ccccc1 [Compound 436]
10: Wild oats plant response rating (wild oat; [10]) | Rape plant response rating (rape; [10]) | Giant foxtail plant response rating (giant foxtail; [10]) | B. signalgrass plant response rating (surinam grass; [10]) | Redroot pigweed plant response rating (pigweed; [10]) | Morningglory plant response rating (morningglory; [6])
3: Wild oats plant response rating (wild oat; [6]) | Nutsedge plant response rating (purple nutsedge; [6]) | Velvetleaf plant response rating (velvetleaf; [6])
4: Rape plant response rating (rape; [6]) | Soybean plant response rating (soybean; [6])
9: Blackgrass plant response rating (blackgrass; [6]) | Blackgrass plant response rating (blackgrass; [10]) | Giant foxtail plant response rating (giant foxtail; [6])
0: Barnyardgrass plant response rating (bamyardgrass; [1]) | Barnyardgrass plant response rating (bamyardgrass; [2]) | Barnyardgrass plant response rating (bamyardgrass; [3]) | Barnyardgrass plant response rating (bamyardgrass; [4]) | Blackgrass plant response rating (blackgrass; [5]) | Plant response rating, Blackgrass (blackgrass; [7]) | Plant response rating, Blackgrass (blackgrass; [8]) | Blackgrass plant response rating (blackgrass; [9]) | Blackgrass plant response rating (blackgrass; [11]) | Blackgrass plant response rating (blackgrass; [12]) | Wild oats plant response rating (wild oat; [5]) | Plant response rating, Wild oats (wild oat; [7]) | Plant response rating, Wild oats (wild oat; [8]) | Wild oats plant response rating (wild oat; [9]) | Wild oats plant response rating (wild oat; [11]) | Wild oats plant response rating (wild oat; [12]) | Rape plant response rating (rape; [5]) | Plant response rating, Rape (rape; [7]) | Plant response rating, Rape (rape; [8]) | Rape plant response rating (rape; [9]) | Rape plant response rating (rape; [11]) | Rape plant response rating (rape; [12]) | S. Flatsedge plant response rating (smallflower flatsedge; [1]) | S. Flatsedge plant response rating (smallflower flatsedge; [2]) | S. Flatsedge plant response rating (smallflower flatsedge; [3]) | S. Flatsedge plant response rating (smallflower flatsedge; [4]) | Nutsedge plant response rating (purple nutsedge; [5]) | Plant response rating, Nutsedge (purple nutsedge; [7]) | Plant response rating, Nutsedge (purple nutsedge; [8]) | Nutsedge plant response rating (purple nutsedge; [9]) | Nutsedge plant response rating (purple nutsedge; [11]) | Nutsedge plant response rating (purple nutsedge; [12]) | Plant response rating, Giant foxtail (giant foxtail; [7]) | Plant response rating, Giant foxtail (giant foxtail; [8]) | Giant foxtail plant response rating (giant foxtail; [9]) | Giant foxtail plant response rating (giant foxtail; [11]) | Giant foxtail plant response rating (giant foxtail; [12]) | Soybean plant response rating (soybean; [5]) | Plant response rating, Soybean (soybean; [7]) | Plant response rating, Soybean (soybean; [8]) | Soybean plant response rating (soybean; [9]) | Soybean plant response rating (soybean; [10]) | Soybean plant response rating (soybean; [11]) | Soybean plant response rating (soybean; [12]) | Bedstraw plant response rating (bedstraw; Rate 250 g/ha, scale 0 to 10) | Bedstraw plant response rating (bedstraw; Rate 62 g/ha, scale 0 to 10, 0 no effect, 10 complete control) | Bedstraw plant response rating (bedstraw; Rate 125 g/ha, scale 0 to 10, 0 is no effect, 10 is complete control) | Velvetleaf plant response rating (velvetleaf; [5]) | Plant response rating, Velvetleaf (velvetleaf; [7]) | Plant response rating, Velvetleaf (velvetleaf; [8]) | Velvetleaf plant response rating (velvetleaf; [9]) | Velvetleaf plant response rating (velvetleaf; [11]) | Velvetleaf plant response rating (velvetleaf; [12]) | Ducksalad plant response rating (duck salad; [1]) | Ducksalad plant response rating (duck salad; [2]) | Ducksalad plant response rating (duck salad; [3]) | Ducksalad plant response rating (duck salad; [4]) | Wheat plant response rating (wheat; [5]) | Plant response rating, Wheat (wheat; [7]) | Plant response rating, Wheat (wheat; [8]) | Wheat plant response rating (wheat; [9]) | Wheat plant response rating (wheat; [11]) | Wheat plant response rating (wheat; [12]) | B. signalgrass plant response rating (surinam grass; Postemergence, Rate 250 g/ha, scale 0 to 10, 0 no effect, 10 complete control) | Plant response rating, B. signalgrass (surinam grass; [7]) | Plant response rating, B. signalgrass (surinam grass; [8]) | B. signalgrass plant response rating (surinam grass; [9]) | B. signalgrass plant response rating (surinam grass; [11]) | B. signalgrass plant response rating (surinam grass; [12]) | Redroot pigweed plant response rating (pigweed; [5]) | Plant response rating, Redroot pigweed (pigweed; [7]) | Plant response rating, Redroot pigweed (pigweed; [8]) | Redroot pigweed plant response rating (pigweed; [9]) | Redroot pigweed plant response rating (pigweed; [11]) | Redroot pigweed plant response rating (pigweed; [12]) | Plant response rating, Morningglory (morningglory; [7]) | Plant response rating, Morningglory (morningglory; [8]) | Morningglory plant response rating (morningglory; [9]) | Morningglory plant response rating (morningglory; [11]) | Morningglory plant response rating (morningglory; [12]) | Cocklebur plant response rating (cocklebur; [5]) | Cocklebur plant response rating (cocklebur; [6]) | Plant response rating, Cocklebur (cocklebur; [7]) | Plant response rating, Cocklebur (cocklebur; [8]) | Cocklebur plant response rating (cocklebur; [9]) | Cocklebur plant response rating (cocklebur; [10]) | Cocklebur plant response rating (cocklebur; [11]) | Cocklebur plant response rating (cocklebur; [12])
2: Morningglory plant response rating (morningglory; [5])
1: Giant foxtail plant response rating (giant foxtail; [5]) | Morningglory plant response rating (morningglory; [10])
5: Nutsedge plant response rating (purple nutsedge; [10]) | Wheat plant response rating (wheat; [10])
7: Velvetleaf plant response rating (velvetleaf; [10]) | Wheat plant response rating (wheat; [6]) | Redroot pigweed plant response rating (pigweed; [6])
8: B. signalgrass plant response rating (surinam grass; [6])
